Results as given in patent publication US20260001914A1, “MACROCYCLIC PEPTIDES TARGETING KRAS” (Merck Sharp & Dohme LLC, priority 2022, published 2026).
*1 amine or outer side, *2 acyl side, *3 side chain or, on linkers, in order; H or OH if unused. Where a SMILES comes first, the peptide text is derived from it. [ ]: non-standard residue; d: D form. Phe(4-guanidino) = N=C(N)Nc1ccc(C[C@H](N)C(=O)O)cc1; X65 = O=C([C@H](CCCn1ccnc1[N+](=O)[O-])N[*:1])[*:2]; X72 = CC1(C)NC(=N)N(CCC[C@H](N[*:1])C(=O)[*:2])C1=O; Ala(pyrimidin-5-yl) = N[C@@H](Cc1cncnc1)C(=O)O; X80 = Nc1nccn1CCC[C@H](N[*:1])C(=O)[*:2]; Lys(N3) = [N-]=[N+]=NCCCC[C@H](N)C(=O)O; X46 = O=C([C@H](Cc1cccnc1F)N[*:1])[*:2]; Phe(4-F) = N[C@@H](Cc1ccc(F)cc1)C(=O)O; NHCH2CH2SCH2CO = O=C(CSCCN[*:1])[*:2]; X21 = O=C([C@@H]1C[C@H]1CN[*:1])[*:2]; X61 = O=C(C12COC(CN[*:1])(C1)C2)[*:2]; Phe(2-F) = N[C@@H](Cc1ccccc1F)C(=O)O; X31 = O=C([C@H](CCC1CC1)N[*:1])[*:2]; X70 = O=C(C1CC2(C1)CN([*:1])C2)[*:2]; NMe3Pal = CN[C@@H](Cc1cccnc1)C(=O)O; X1 = O=C(C12CC(CN[*:1])(C1)C2)[*:2]; X56 = O=C(C12CC(N[*:1])(C1)C2)[*:2]; Aha = [N-]=[N+]=NCC[C@H](N)C(=O)O; NMeR = CN[C@@H](CCCNC(=N)N)C(=O)O; Ala(cPr) = N[C@@H](CC1CC1)C(=O)O; NMeF = CN[C@@H](Cc1ccccc1)C(=O)O; PhLac = O=C(O)[C@@H](O)Cc1ccccc1; X4 = O=C([C@H](CCCF)N[*:1])[*:2]; 3Pal = N[C@@H](Cc1cccnc1)C(=O)O; 4Pal = N[C@@H](Cc1ccncc1)C(=O)O; d3Pal = N[C@H](Cc1cccnc1)C(=O)O; X58 = O=C(C1CC(N[*:1])C1)[*:2]; X50 = CC(CCCC(=O)[*:2])N[*:1]; Cba = N[C@@H](CC1CCC1)C(=O)O; NMeNle = CCCC[C@H](NC)C(=O)O; X64 = O=C(C#CCN[*:1])[*:2]; NMeS = CN[C@@H](CO)C(=O)O; NMeA = CN[C@@H](C)C(=O)O; Nle = CCCC[C@H](N)C(=O)O; Nva = CCC[C@H](N)C(=O)O

molecular target: KRAS-G12D protein (Homo sapiens, UniProt P01116, G12D); assay: SOS-mediated nucleotide exchange assay (BODIPY-GDP / Tb-streptavidin TR-FRET); type: biochemical
Sequence (P01116 1-188 isoform P01116-2 G12D): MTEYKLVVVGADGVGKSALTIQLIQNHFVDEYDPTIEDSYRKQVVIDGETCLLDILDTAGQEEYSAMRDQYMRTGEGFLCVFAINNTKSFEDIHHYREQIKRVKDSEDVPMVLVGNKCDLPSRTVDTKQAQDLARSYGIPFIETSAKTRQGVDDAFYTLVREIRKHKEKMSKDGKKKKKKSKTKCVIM

SMILES | EC50 [µM]
CCCC[C@@H]1NC(=O)[C@H](Cc2ccncc2)NC(=O)[C@H](CCCNC(=N)N)NC(=O)[C@H](Cc2ccc(F)cc2)NC(=O)CSCCNC(=O)[C@H](Cc2ccccc2)N(C)C(=O)[C@H](CCCC)NC(=O)[C@H](Cc2ccc(OC)cc2)NC1=O [compound 90, cyclo(Phe4F-R-4Pal-Nle-TyrOMe-Nle-NMeF-Cysteamine-ClAc)] (cyclo([4Pal][Nle]Y(Me)[Nle][NMeF][NHCH2CH2SCH2CO][Phe(4-F)]R)) | 0.432
CCCC[C@@H]1NC(=O)[C@H](Cc2ccc(NC(=N)N)cc2)NC(=O)[C@H](CCCNC(=N)N)NC(=O)[C@H](Cc2ccccc2)NC(=O)C2CC(C2)NC(=O)[C@H](Cc2ccccc2)N(C)C(=O)[C@H](CCCC)NC(=O)[C@H](Cc2ccc(OC)cc2)NC1=O [compound 92, cyclo(F-R-Phe4Gn-Nle-TyrOMe-Nle-NMeF-acBu)] (cyclo(FR[Phe(4-guanidino)][Nle]Y(Me)[Nle][NMeF][X58])) | 0.0139
CCCC[C@@H]1NC(=O)[C@H](Cc2ccc(NC(=N)N)cc2)NC(=O)[C@H](CCCNC(=N)N)NC(=O)[C@H](Cc2ccccc2)NC(=O)CCCC(C)NC(=O)[C@H](Cc2ccccc2)N(C)C(=O)[C@H](CCCC)NC(=O)[C@H](Cc2ccc(OC)cc2)NC1=O (stereo partly shown) [compound 93, cyclo(F-R-Phe4Gn-Nle-TyrOMe-Nle-NMeF-SamHex)] (cyclo(FR[Phe(4-guanidino)][Nle]Y(Me)[Nle][NMeF][X50])) | 0.142
CCCC[C@@H]1NC(=O)[C@H](Cc2cccnc2)NC(=O)[C@H](CCCNC(=N)N)N(C)C(=O)[C@H](Cc2ccccc2)NC(=O)[C@@H]2C[C@H]2CNC(=O)[C@H](Cc2ccccc2)N(C)C(=O)[C@H](CCCCN=[N+]=[N-])NC(=O)[C@H](Cc2ccc(OC)cc2)NC1=O [compound 94, cyclo(F-NMeR-3Pal-Nle-TyrOMe-LysN3-NMeF-tamcPr)] (cyclo(F[NMeR][3Pal][Nle]Y(Me)[Lys(N3)][NMeF][X21])) | 0.224
CCCC[C@@H]1NC(=O)[C@H](Cc2ccc(OC)cc2)NC(=O)[C@H](CC2CCC2)NC(=O)[C@H](Cc2cccnc2)NC(=O)[C@H](CCCNC(=N)N)NC(=O)[C@H](Cc2ccccc2)NC(=O)C23CC(CNC(=O)[C@H](Cc4ccccc4)N(C)C1=O)(C2)C3 [compound 98, cyclo(F-R-3Pal-cBuA-TyrOMe-Nle-NMeF-amBCP)] (cyclo(FR[3Pal][Cba]Y(Me)[Nle][NMeF][X1])) | 0.00547
CCCC[C@@H]1NC(=O)[C@H](Cc2ccc(OC)cc2)NC(=O)[C@H](CC2CCC2)NC(=O)[C@H](Cc2cccnc2)NC(=O)[C@H](CCCNC(=N)N)NC(=O)[C@H](Cc2ccccc2)NC(=O)C2CC3(C2)CN(C3)C(=O)[C@H](Cc2ccccc2)N(C)C1=O [compound 102, cyclo(F-R-3Pal-cBuA-TyrOMe-Nlc-NMeF-spiro44)] (cyclo(FR[3Pal][Cba]Y(Me)[Nle][NMeF][X70])) | 7.34
CCCC[C@@H]1NC(=O)[C@H](Cc2ccccc2F)NC(=O)[C@H](CC2CCC2)NC(=O)[C@@H](Cc2cccnc2)NC(=O)[C@H](CCCNC(=N)N)NC(=O)[C@H](Cc2ccccc2)NC(=O)C23CC(CNC(=O)[C@H](Cc4cccnc4)N(C)C1=O)(C2)C3 [compound 103, cyclo(F-R-d3Pal-cBuA-Phe2F-Nle-NMe3Pal-amBCP)] (cyclo(FR[d3Pal][Cba][Phe(2-F)][Nle][NMe3Pal][X1])) | 0.00319
CCCC[C@@H]1NC(=O)[C@H](Cc2ccccc2F)NC(=O)[C@H](CC2CCC2)NC(=O)[C@@H](Cc2cccnc2)NC(=O)[C@H](CCCNC(=N)N)NC(=O)[C@H](Cc2ccccc2)NC(=O)C#CCNC(=O)[C@H](Cc2cccnc2)N(C)C1=O [compound 104, cyclo(F-R-d3Pal-cBuA-Phe2F-Nle-NMe3Pal-amBYA)] (cyclo(FR[d3Pal][Cba][Phe(2-F)][Nle][NMe3Pal][X64])) | 0.387
CCCC[C@@H]1NC(=O)[C@H](Cc2ccccc2F)NC(=O)[C@H](CC2CCC2)NC(=O)[C@@H](Cc2cccnc2)NC(=O)[C@H](CCCN2C(=N)NC(C)(C)C2=O)NC(=O)[C@H](Cc2ccccc2)NC(=O)C23CC(CNC(=O)[C@H](Cc4cccnc4)N(C)C1=O)(C2)C3 [compound 105, cyclo(F-baceNva-d3Pal-cBuA-Phe2F-Nle-NMe3Pal-amBCP)] (cyclo(F[X72][d3Pal][Cba][Phe(2-F)][Nle][NMe3Pal][X1])) | 0.00756
CCCC[C@@H]1NC(=O)[C@H](Cc2ccccc2F)NC(=O)[C@H](CC2CCC2)NC(=O)[C@@H](Cc2cccnc2)NC(=O)[C@H](CCCNC(=N)N)NC(=O)[C@H](Cc2ccccc2)NC(=O)C23COC(CNC(=O)[C@H](Cc4cccnc4)N(C)C1=O)(C2)C3 [compound 106, cyclo(F-R-d3Pal-cBuA-Phe2F-Nle-NMe3Pal-amOBCH)] (cyclo(FR[d3Pal][Cba][Phe(2-F)][Nle][NMe3Pal][X61])) | 6.82
CCCC[C@@H]1NC(=O)[C@H](Cc2ccccc2F)NC(=O)[C@H](CC2CCC2)NC(=O)[C@@H](Cc2cccnc2)NC(=O)[C@H](CCCn2ccnc2[N+](=O)[O-])NC(=O)[C@H](Cc2ccccc2)NC(=O)C23CC(CNC(=O)[C@H](Cc4cccnc4)N(C)C1=O)(C2)C3 [compound 107, cyclo(F-NO2IMNva-d3Pal-cBuA-Phe2F-Nle-NMe3Pal-amBCP)] (cyclo(F[X65][d3Pal][Cba][Phe(2-F)][Nle][NMe3Pal][X1])) | 0.242
CCCC[C@@H]1NC(=O)[C@H](Cc2ccccc2F)NC(=O)[C@H](CC2CCC2)NC(=O)[C@@H](Cc2cccnc2)NC(=O)[C@H](CCCNC(=N)N)NC(=O)[C@H](Cc2ccccc2)NC(=O)C23CC(C2)(C3)NC(=O)[C@H](Cc2cccnc2)N(C)C1=O [compound 108, cyclo(F-R-d3Pal-cBuA-Phe2F-Nle-NMe3Pal-BCP)] (cyclo(FR[d3Pal][Cba][Phe(2-F)][Nle][NMe3Pal][X56])) | 1.14
CCCC[C@@H]1NC(=O)[C@H](Cc2ccccc2F)NC(=O)[C@H](CCCC)N(C)C(=O)[C@@H](Cc2cccnc2)NC(=O)[C@H](CCCNC(=N)N)N(C)C(=O)[C@H](Cc2ccccc2)NC(=O)C23CC(CNC(=O)[C@H](Cc4cccnc4)N(C)C1=O)(C2)C3 [compound 109, cyclo(F-NMeR-d3Pal-NMeNle-Phe2F-Nle-NMe3Pal-amBCP)] (cyclo(F[NMeR][d3Pal][NMeNle][Phe(2-F)][Nle][NMe3Pal][X1])) | 1.2
CCCC[C@@H]1NC(=O)[C@H](Cc2ccccc2F)NC(=O)[C@H](CC2CCC2)NC(=O)[C@@H](Cc2cccnc2)NC(=O)[C@H](CCCn2ccnc2N)NC(=O)[C@H](Cc2ccccc2)NC(=O)C23CC(CNC(=O)[C@H](Cc4cccnc4)N(C)C1=O)(C2)C3 [compound 110, cyclo(F-NH2IMNva-d3Pal-cBuA-Phe2F-Nle-NMe3Pal-amBCP)] (cyclo(F[X80][d3Pal][Cba][Phe(2-F)][Nle][NMe3Pal][X1])) | 0.00114
CCCC[C@@H]1NC(=O)[C@H](C(C)C)NC(=O)[C@H](CC2CCC2)NC(=O)[C@H](Cc2cccnc2)NC(=O)[C@H](CCN=[N+]=[N-])NC(=O)[C@H](Cc2ccccc2)NC(=O)C23CC(CNC(=O)[C@H](Cc4cccnc4)N(C)C1=O)(C2)C3 [compound 113, cyclo(F-DabN3~3Pal-cBuA-V-Nle-NMe3Pal-amBCP)] (cyclo(F[Aha][3Pal][Cba]V[Nle][NMe3Pal][X1])) | 6.56
C[C@H]1C(=O)N[C@@H](Cc2cncnc2)C(=O)N[C@@H](CC2CC2)C(=O)N[C@@H](Cc2ccccc2F)C(=O)N[C@@H](CCC2CC2)C(=O)N(C)[C@@H](Cc2ccccc2)C(=O)NCC23CC(C2)(C3)C(=O)O[C@@H](Cc2ccccc2)C(=O)N1C [compound 114, cyclo(FLac-NMeA-PyrimAla-cPrA-Phe2F-hcPrA-NMeF-amBCP)] (cyclo([Ala(cPr)][Phe(2-F)][X31][NMeF][X1][PhLac][NMeA][Ala(pyrimidin-5-yl)])) | 0.002
C[C@H]1C(=O)N[C@@H](Cc2cncnc2)C(=O)N[C@@H](CC2CCC2)C(=O)N[C@@H](Cc2ccccc2F)C(=O)N[C@@H](CCC2CC2)C(=O)N(C)[C@@H](Cc2ccccc2)C(=O)NCC23CC(C2)(C3)C(=O)O[C@@H](Cc2ccccc2)C(=O)N1C [compound 115, cyclo(FLac-NMeA-PyrimAla-cBuA-Phe2F-hcPrA-NMeF-amBCP)] (cyclo([Cba][Phe(2-F)][X31][NMeF][X1][PhLac][NMeA][Ala(pyrimidin-5-yl)])) | 0.004
CCCC[C@@H]1NC(=O)[C@H](Cc2cccnc2)NC(=O)[C@H](C)N(C)C(=O)[C@H](Cc2ccccc2)OC(=O)C23CC(CNC(=O)[C@H](Cc4cccnc4)N(C)C(=O)[C@H](CCC)NC(=O)[C@H](Cc4ccccc4F)NC1=O)(C2)C3 [compound 116, cyclo(FLac-NMeA-3Pal-Nle-Phe2F-Nva-NMe3Pal-amBCP)] (cyclo([3Pal][Nle][Phe(2-F)][Nva][NMe3Pal][X1][PhLac][NMeA])) | 0.154
CCCC[C@@H]1NC(=O)[C@H](Cc2cccnc2F)NC(=O)[C@H](C)N(C)C(=O)[C@H](Cc2ccccc2)OC(=O)C23CC(CNC(=O)[C@H](Cc4cccnc4)N(C)C(=O)[C@H](CCCC)NC(=O)[C@H](Cc4ccccc4F)NC1=O)(C2)C3 [compound 117, cyclo(FLac-NMeA~3Pal2F-Nle-Phe2F-Nle-NMe3Pal-amBCP)] (cyclo([NMe3Pal][X1][PhLac][NMeA][X46][Nle][Phe(2-F)][Nle])) | 1.45
CCCC[C@@H]1NC(=O)[C@H](Cc2cccnc2)NC(=O)[C@H](CO)N(C)C(=O)[C@H](Cc2ccccc2)OC(=O)C23CC(CNC(=O)[C@H](Cc4cccnc4)N(C)C(=O)[C@H](CCCC)NC(=O)[C@H](Cc4ccccc4F)NC1=O)(C2)C3 [compound 118, cyclo(FLac-NMeS-3Pal-Nle-Phe2F-Nle-NMe3Pal-amBCP)] (cyclo([3Pal][Nle][Phe(2-F)][Nle][NMe3Pal][X1][PhLac][NMeS])) | 0.466
CCCC[C@@H]1NC(=O)[C@H](Cc2cncnc2)NC(=O)[C@H](CO)N(C)C(=O)[C@H](Cc2ccccc2)OC(=O)C23CC(CNC(=O)[C@H](Cc4cccnc4)N(C)C(=O)[C@H](CCCC)NC(=O)[C@H](Cc4ccccc4F)NC1=O)(C2)C3 [compound 119, cyclo(FLac-NMeS-PyrimAla-Nle-Phe2F-Nle-NMe3Pal-amBCP)] (cyclo([NMe3Pal][X1][PhLac][NMeS][Ala(pyrimidin-5-yl)][Nle][Phe(2-F)][Nle])) | 0.375
CCCC[C@@H]1NC(=O)[C@H](Cc2ccccc2F)NC(=O)[C@H](CCCF)NC(=O)[C@H](Cc2cccnc2)NC(=O)[C@H](C)N(C)C(=O)[C@H](Cc2ccccc2)OC(=O)C23CC(CNC(=O)[C@H](Cc4cccnc4)N(C)C1=O)(C2)C3 [compound 120, cyclo(FLac-NMeA-3Pal-NvaF-Phe2F-Nle-NMe3Pal-amBCP)] (cyclo([3Pal][X4][Phe(2-F)][Nle][NMe3Pal][X1][PhLac][NMeA])) | 0.0351
